# Results taken from patent US20180271925A1, “Method For Improving Gingivitis And Periodontitis By Antibacterial, Antioxidant And Anti-Inflammatory Effects And Inhibition Of Alveolar Bone Loss Of Complex Extracts Of Moringa Leaf And Eucommia Bark” (HLSCIENCE CO., LTD., priority 2017, published 2018).
# Legend:
# Assay type in all cases: in vivo, rat
# [1] = system: interleukin (IL)-1β in the gingival tissue; test: IL-1β content in gingival tissue of EPD rats, 14 natural substance extracts; details: extract 200 mg/kg (IND 5 mg/kg) oral once a day for 10 days, FIG. 1
# Experimental: The gingivitis- and periodontitis-improving effect was evaluated using rats with ligature-induced experimental periodontitis (EPD). 24 hours after the ligature of the cervical portion, each extract dissolved in sterilized distilled water was orally administered at a dosage of 5 mL/kg (200 mg/kg) once a day for 10 days and the change in the amount of interleukin (IL)-1β in the gingival tissue and the alveolar bone volume was observed along with histopathological changes. A group to which 5 mg/kg indomethacin (IND), which is a nonsteroidal anti-inflammatory drug (NSAID), was orally administered was used as a control group. […]
# After EPD for 11 days, the gingival tissue was homogenized and subjected to measurement with the IL-1β rat ELISA kit (Abcam, Cambridge, UK). […] After adding 50 μL of a stop solution to each well, absorbance was measured with a microplate reader (Tecan, Mannedofr, Switzerland) at a wavelength of 450 nm.
# [2] = system: osteoclasts in alveolar bone; test: Number of osteoclasts in alveolar bone of EPD rats (TRAP staining); details: dosage of 200 mg/kg oral once a day for 10 days, FIG. 7
# Experimental: The gingivitis- and periodontitis-improving effect was evaluated using rats with ligature-induced experimental periodontitis (EPD). 9 complex compositions of the moringa leaf extract (MF) and the eucommia bark extract (EC) (MF:EC=1:1, 1:2, 1:4, 1:6, 1:8, 2:1, 4:1, 6:1 and 8:1; mg:mg) dissolved in sterilized distilled water were orally administered at a dosage of 5 mL/kg (200 mg/kg) once a day for 10 days and body weight, alveolar bone, number of viable aerobic bacteria in the oral tissue, interleukin (IL)-1β and tumor necrosis factor (TNF)-α contents in the gingiva, lipid peroxidation (malondialdehyde (MDA) content) and change in the activity of inducible nitric oxide synthase (iNOS) and myeloperoxidase (MPO) were observed together with histopathological changes. […] A group to which 5 mg/kg indomethacin (IND), which is a nonsteroidal anti-inflammatory drug (NSAID), was orally administered was used as a control group. […]
# The number of osteoclasts was determined by staining with TRAP and counting the number of TRAP-positive multinucleated cells. […] The number of TRAP-positive multinucleated osteoclasts (having 3 or more nuclei) formed on the surface of the alveolar bone was counted using an optical microscope.
# [3] = system: rats with ligature-induced experimental periodontitis (EPD); test: Alveolar bone volume in EPD rats, 14 natural substance extracts; details: extract 200 mg/kg (IND 5 mg/kg) oral once a day for 10 days, FIG. 2
# Experimental: The gingivitis- and periodontitis-improving effect was evaluated using rats with ligature-induced experimental periodontitis (EPD). 24 hours after the ligature of the cervical portion, each extract dissolved in sterilized distilled water was orally administered at a dosage of 5 mL/kg (200 mg/kg) once a day for 10 days and the change in the amount of interleukin (IL)-1β in the gingival tissue and the alveolar bone volume was observed along with histopathological changes. A group to which 5 mg/kg indomethacin (IND), which is a nonsteroidal anti-inflammatory drug (NSAID), was orally administered was used as a control group.
# Each of the concentrated pomegranate powder and the 13 extracts containing moringa leaf (balloon flower root, gardeniae fructus, scutellariae radix, moringa, lotus leaf, Chinese mulberry leaf, ginger, peony root, achyranthis radix, eucommia bark, red clover, dandelion and dandelion root) was dissolved in sterilized distilled water to a concentration of 40 mg/mL and orally administered at a dosage of 5 mL/kg (200 mg/kg) from 24 hours after the ligature of the cervical portion once a day for 10 days. […]
# Alveolar bone loss was measured according to the method of Crawford et al. [1987]. […] The area between the end of the gingiva and the end of the incisor between the two teeth subjected to EPD was expressed as mm/rat.
smiles,measurement,setting,value
"COc1ccc2c(c1)c(CC(=O)O)c(C)n2C(=O)c1ccc(Cl)cc1 [IND, indomethacin]",change in IL-1β content in the gingival tissue as compared to the EPD control group,[1],significantly decrease (p<0.01)
same,change in the number of osteoclasts as compared to the EPD control group,[2],−50.19%
same,change in alveolar bone volume as compared to the EPD control group,[3],significantly increase (p<0.01 or p<0.05)
